According to paper PMC4948780, “PARP Inhibitors in Clinical Use Induce Genomic Instability in Normal Human Cells” (PLoS ONE, 2016):

Columns and labels:
[1] = patients on the olaparib-treated arm, prior cytotoxic chemotherapy; cited from earlier work
MCF-10A = assay: Clonogenic survival assay; assay type: cell-based, human
Procedure: Clonogenic survival was assessed by colony counting at 9 days. […] Viable cells were scored and enumerated by trypan blue exclusion at 7 days. Means with SD are shown (MCF-10A: n = 3, primary T cell 1: n = 2). […] Fold increases of SCE per chromosome compared with no treatment or 0.5 μM cisplatin are shown for each cell type. Approximately 50 metaphases were counted for each cell. Error bars depict the mean with SD. Asterisks designate statistical significance for unpaired t-test at P < 0.0001. C. […] One hundred metaphases were counted for each exposure. Fold increases of chromatid-type aberrations per chromosome compared with no treatment or 0.5 μM cisplatin are shown for each cell type. The y-axis is the number of total chromatid-type aberrations per chromosome for each metaphase counted. Error bars indicate mean with SEM. The P-values were calculated using unpaired t-test.
Human mammary epithelial cell lines used included non-tumorigenic diploid MCF-10A, HMEC-hTERT and tumorigenic MDA-MB-468 (basal) and MCF-7 (luminal). […] Blood samples were obtained from normal donor participants. The participants provided written informed consent to IRB protocol #95–054 approved by the Institutional Review Board at MSKCC. The original signed consent is then sent to the research participant’s medical record and a copy of the consent is given to the participant. The EBV-transformed B-lymphocyte cell line (EBV-BL) was generated by transformation of peripheral blood mononuclear cells (PBMC) with the B95.8 strain of EBV, as previously described. Primary T cells were generated from PBMC from two normal donors by non-specific activation with phytohemagglutinin and cultured in RPMI1640 and human serum AB for 4–14 days before use. E14 mES cell line was provided by M. Hooper, Brca1^-/- 236.44 mES cell line was provided by B. H. Koller, Brca2^lex1/lex2 mES cell line was provided by P. Hasty and Lexicon Genetics. E14 wild-type, Brca1^-/- 236.44, and Brca2^lex1/lex2 mES cell lines were cultured in standard ES media. Brca1^-/- 236.44 cells express a BRCA1 peptide deleted for sequences encoded by exon 11 [52], while Brca2^lex1/lex2 cells express a BRCA2 peptide deleted for the terminal exon 27 [53]. Olaparib was synthesized in the MSKCC Organic chemistry core facility. Veliparib and BSI-201 were purchased from Chemie Tek. The compounds were dissolved in DMSO and PBS. For clonogenic survival assays, MCF-10A (1000 cells), HMEC-hTERT (1000 cells), MDA-MB-468 (1500 cells) and mouse ES cell (2000 cells) were seeded, vehicle control or inhibitors were added at the indicated concentration 24 hours after seeding and changed every three days for continuous treatment. At 7–14 days, colonies were fixed with methanol and stained with Giemsa. For EBV-BL (6 × 10^6) and primary T cells (3.6 × 10^6) were continuously exposed to the indicated concentration of drug for 10 days at 0.6 × 10^6 cells/ml. Viable cells were scored by trypan blue exclusion.

## O=C(c1cc(Cc2n[nH]c(=O)c3ccccc23)ccc1F)N1CCN(C(=O)C2CC2)CC1 [olaparib]
[1]
  incidence of myelodysplastic syndrome and acute myelogenous leukemia: 2.2%
MCF-10A; 1 μM
  survival (mean ± SD): 95.7 ± 1.9%
MCF-10A; Homo sapiens, continuous exposure, clonogenic survival assay, read-out: IC50 (cell survival)
  IC50: 4.7 µM
